Measurements as given in patent US7241785B2, “Five-membered heterocyclic alkanoic acid derivative” (Takeda Pharmaceutical Company Limited, priority 2001, dated 2007).

Key:
KKA^y mice [1] = test: Hypoglycemic and hypolipidemic (hypotriglyceridemic) actions in mice; type: in vivo; settings: Mus musculus, po, 96 h, 0.01% in powdery diet, four days
Procedure: Hypoglycemic and Hypolipidemic (Hypotriglyceridemic) Actions in Mice
Test compounds were mixed in a powdery diet (CE-2, Japan Clea) at the concentration of 0.01%, and freely given to KKA^y mice (11 to 12 weeks old, 5 mice per group), a model of type 2 diabetes mellitus, for four days. During this period, water was given freely. Blood was sampled from orbital venous plexus, and glucose and triglyceride levels in plasma separated from the blood were determined enzymatically using L type Wako Glu2 (Wako Pure Chemical Industries, Ltd.) or L type Wako TG.H (Wako Pure Chemical Industries, Ltd.), respectively.
In the Table, “hypoglycemic action (%)” represents a percent reduction (%) of the blood glucose level in the treatment group when the blood glucose level in the non-treatment group is taken as 100%. In addition, “hypolipidemic action (%)” represents a percent reduction (%) of the blood triglyceride level in the treatment group when the blood triglyceride level in the non-treatment group is taken as 100%.

KKA^y mice [2] = test: Total cholesterol lowering action and plasma anti-arteriosclerosis index-enhancing action in mice; type: in vivo; settings: Mus musculus, po, 96 h, 0.01% in powdery diet, four days
Procedure: Total Cholesterol Lowering Action and Plasma Anti-Arteriosclerosis Index-Enhancing Action in Mice
Test compounds were mixed in a powdery diet (CE-2, Japan Clea concentration of 0.01%, and freely given to KKA^y mice (11 to 12 weeks old, 5 mice per group), a model of type 2 diabetes mellitus, for four days. During this period, water was given freely. Blood was sampled from orbital venous plexus, and components in plasma separated from the blood were determined. Total cholesterol levels were determined using L type Wako Cholesterol (Wako Pure Chemical Industries, Ltd.). Precipitation reagent for HDL cholesterol was added to a part of the plasma to precipitate non-HDL lipoprotein, and cholesterol (HDL cholesterol) in the resulting supernatant was determined. The plasma anti-arteriosclerosis index [(HDL cholesterol/total cholesterol)×100] was calculated using these cholesterol levels.
In the Table, “total cholesterol lowering action (%)” represents a percent reduction (%) of the total cholesterol level in the treatment group when the total cholesterol level in the non-treatment group is taken as 100%. In addition, “plasma anti-arteriosclerosis index-enhancing action (%)” represents a percent increase (%) of the plasma anti-arteriosclerosis index in the treatment group when the plasma anti-arteriosclerosis index in the non-treatment group is taken as 100%.

[3] = percent reduction of blood glucose level vs non-treatment group (100%), read-out: Hypoglycemic action (%)
[4] = percent reduction of blood triglyceride level vs non-treatment group (100%), read-out: Hypolipidemic action (%)

Row | Compound | melting point | other results
1 | Cc1oc(-c2ccccc2)nc1COc1ccc(CN(C)c2nc(-c3ccccc3)c(CCC(=O)O)s2)cc1.Cl | 106 to 108 °C | 
2 | Cc1oc(-c2ccccc2)nc1COc1ccc(CSc2nc(CCC(=O)O)n[nH]2)cc1 [Example 18, 3-[5-[4-(5-methyl-2-phenyl-4-oxazolylmethoxy)benzylthio]-1H-1,2,4-triazol-3-yl]propionic acid] | 170 to 171 °C | 
3 | Cc1oc(-c2ccccc2)nc1COc1ccc(Sc2nc(CC(=O)O)cs2)cc1 [Example 19, [2-[4-(5-methyl-2-phenyl-4-oxazolylmethoxy)phenylthio]-4-thiazolyl]acetic acid] | 180 to 181 °C | 
4 | Cc1oc(-c2ccccc2)nc1COc1ccc(COc2nn(Cc3ccccc3)cc2CCC(=O)O)cc1 [Example 20, 3-[1-benzyl-3-[-4-(5-methyl-2-phenyl-4-oxazolylmethoxy)benzyloxy]-1H-pyrazol-4-yl]propionic acid] | 125 to 126 °C | 
5 | Cc1oc(-c2ccccc2)nc1CCOc1ccc(COc2nn(C)cc2CC(=O)O)cc1 [Example 22, [1-methyl-3-[4-[2-(5-methyl-2-phenyl-4-oxazolyl)ethoxy]benzyloxy]-1H-pyrazol-4-yl]acetic acid] | 148 to 149 °C | 
6 | Cc1oc(-c2ccccc2)nc1COc1ccc(COc2nn(C)cc2CC(=O)O)cc1 [Example 24, [1-methyl-3-[4-(5-methyl-2-phenyl-4-oxazolylmethoxy)benzyloxy]-1H-pyrazol-4-yl]acetic acid] | 133 to 134 °C | inhibition in vivo at 0.01 % in diet (KKA^y mice [1]; [3]): 50%; inhibition in vivo at 0.01 % in diet (KKA^y mice [1]; [4]): 22%
7 | Cc1oc(-c2ccccc2)nc1COc1cc(COc2nn(C)cc2CC(=O)O)ccn1 [Example 28, [1-methyl-3-[2-(5-methyl-2-phenyl-4-oxazolylmethoxy)-4-pyridylmethoxy]-1H-pyrazol-4-yl]acetic acid] | 126 to 127 °C | 
8 | Cc1oc(-c2ccccc2)nc1COc1cc(COc2nn(C)cc2CC(=O)O)on1 [Example 30, [1-methyl-3-[3-(5-methyl-2-phenyl-4-oxazolylmethoxy)-5-isoxazolylmethoxy]-1H-pyrazol-4-yl]acetic acid] | 149 to 150 °C | 
9 | Cn1cc(CC(=O)O)c(OCc2cc(OCc3ccc4ccccc4n3)no2)n1 [Example 32, [1-methyl-3-[3-(2-quinolylmethoxy)-5-isoxazolylmethoxy]-1H-pyrazol-4-yl]acetic acid] | 124 to 125 °C | 
10 | Cn1cc(CC(=O)O)c(OCc2ccc(OCc3csc(-c4ccccc4)n3)nc2)n1 [Example 34, [1-methyl-3-[6-(2-phenyl-4-thiazolylmethoxy)-3-pyridylmethoxy]-1H-pyrazol-4-yl]acetic acid] | 156 to 157 °C | 
11 | Cc1sc(-c2ccccc2)nc1COc1ccc(COc2nn(C)cc2CC(=O)O)cn1 [Example 36, [1-methyl-3-[6-(5-methyl-2-phenyl-4-thiazolylmethoxy)-3-pyridylmethoxy]-1H-pyrazol-4-yl]acetic acid] | 140 to 141 °C | 
12 | Cc1oc(-c2ccco2)nc1COc1ccc(COc2nn(C)cc2CC(=O)O)cn1 [Example 38, [3-[6-[2-(2-furyl)-5-methyl-4-oxazolylmethoxy]-3-pyridylmethoxy]-1-methyl-1H-pyrazol-4-yl]acetic acid] | 155 to 156 °C | inhibition in vivo at 0.01 % in diet (KKA^y mice [1]; [3]): 47%; inhibition in vivo at 0.01 % in diet (KKA^y mice [1]; [4]): 36%; change in vivo at 0.01 % in diet (KKA^y mice [2]; percent increase of index [(HDL cholesterol/total cholesterol)×100] vs non-treatment group (100%)): 12%; inhibition in vivo at 0.01 % in diet (KKA^y mice [2]; percent reduction of total cholesterol level vs non-treatment group (100%)): 12%
13 | COc1cc(COc2nn(C)cc2CC(=O)O)ccc1OCc1nc(-c2ccccc2)oc1C [Example 42, [3-[3-methoxy-4-(5-methyl-2-phenyl-4-oxazolylmethoxy)benzyloxy]-1-methyl-1H-pyrazol-4-yl]acetic acid] | 153 to 154 °C | 
14 | Cc1oc(-c2ccccc2)nc1COc1ccc(COc2nn(Cc3ccccc3)cc2CC(=O)O)cc1 [Example 44, [1-benzyl-3-[4-(5-methyl-2-phenyl-4-oxazolylmethoxy)benzyloxy]-1H-pyrazol-4-yl]acetic acid] | 91 to 92 °C | inhibition in vivo at 0.01 % in diet (KKA^y mice [1]; [3]): 53%; inhibition in vivo at 0.01 % in diet (KKA^y mice [1]; [4]): 68%
15 | COc1cc(COc2nn(Cc3ccccc3)cc2CC(=O)O)ccc1OCc1nc(-c2ccccc2)oc1C [Example 46, [1-benzyl-3-[3-methoxy-4-(5-methyl-2-phenyl-4-oxazolylmethoxy)benzyloxy]-1H-pyrazol-4-yl]acetic acid] | 99 to 100 °C | inhibition in vivo at 0.01 % in diet (KKA^y mice [1]; [3]): 54%; inhibition in vivo at 0.01 % in diet (KKA^y mice [1]; [4]): 56%
16 | Cc1oc(-c2ccccc2)nc1COc1ccc(COc2nn(Cc3ccccc3)cc2CCC(=O)O)cn1 [Example 48, 3-[1-benzyl-3-[6-(5-methyl-2-phenyl-4-oxazolylmethoxy)-3-pyridylmethoxy]-1H-pyrazol-4-yl]propionic acid] | 130 to 131 °C | 
17 | COC(=O)Cc1cn(-c2ccccc2)nc1OCc1ccc(OCc2nc(-c3ccccc3)oc2C)c(OC)c1 [Example 51, methyl [3-[3-methoxy-4-(5-methyl-2-phenyl-4-oxazolylmethoxy)benzyloxy]-1-phenyl-1H-pyrazol-4-yl]acetate] | 107 to 108 °C | 
18 | COC(=O)Cc1cn(-c2ccccc2)nc1OCc1ccc(OCc2nc(-c3ccccc3)oc2C)nc1 [Example 53, methyl [3-[6-(5-methyl-2-phenyl-4-oxazolylmethoxy)-3-pyridylmethoxy]-1-phenyl-1H-pyrazol-4-yl]acetate] | 96 to 97 °C | 
19 | COc1cc(COc2nn(-c3ccccc3)cc2CCC(=O)O)ccc1OCc1nc(-c2ccco2)oc1C [Example 56, 3-[3-[4-[2-(2-furyl)-5-methyl-4-oxazolylmethoxy]-3-methoxybenzyloxy]-1-phenyl-1H-pyrazol-4-yl]propionic acid] | 161 to 162 °C | 
20 | Cc1oc(-c2ccccc2)nc1COc1ccc(CCc2oc(-c3ccccc3)nc2CCC(=O)O)cc1 [Example 65, 3-[5-[2-[4-(5-methyl-2-phenyl-4-oxazolyl)methoxyphenyl]ethyl]-2-phenyl-4-oxazolyl]propionic acid] | 110 to 111 °C | 
21 | Cc1oc(-c2ccco2)nc1COc1ccc(Cc2nc(CCC(=O)O)c(-c3ccccc3)o2)cc1 [Example 67, 3-[2-[4-[2-(2-furyl)-5-methyl-4-oxazolylmethoxy]benzyl]-5-phenyl-4-oxazolyl]propionic acid] | 154 to 155 °C | 
22 | Cc1oc(-c2ccco2)nc1COc1ccc(Cc2nc(-c3ccccc3)c(CCC(=O)O)o2)cc1 [Example 69, 3-[2-[4-[2-(2-furyl)-5-methyl-4-oxazolylmethoxy]benzyl]-4-phenyl-5-oxazolyl]propionic acid] | 74 to 76 °C | 
23 | COc1cc(COc2nn(-c3ccccc3)cc2CC(=O)O)ccc1OCc1nc(-c2ccco2)oc1C [Example 73, [3-[4-[2-(2-furyl)-5-methyl-4-oxazolylmethoxy]-3-methoxybenzyloxy]-1-phenyl-1H-pyrazol-4-yl]acetic acid] | 179 to 180 °C | 
24 | COc1cc(COc2nn(-c3ccccc3)cc2CC(=O)N2CCOCC2)ccc1OCc1nc(-c2ccco2)oc1C [Example 74, 4-[3-[4-[2-(2-furyl)-5-methyl1–4-oxazolylmethoxy]-3-methoxybenzyloxy]-1-phenyl-1H-pyrazol-4-yl]acetylmorpholine] | 132 to 133 °C | 
25 | COc1cc(COc2cc(CC(=O)O)n(-c3ccccc3)n2)ccc1OCc1nc(-c2ccco2)oc1C [Example 77, [3-[4-[2-(2-furyl)-5-methyl-4-oxazolylmethoxy]-3-methoxybenzyloxy]-1-phenyl-1H-pyrazol-5-yl]acetic acid] | 145 to 146 °C (dec.) | 
26 | COc1cc(COc2cc(CCC(=O)O)n(-c3ccccc3)n2)ccc1OCc1nc(-c2ccccc2)oc1C [Example 79, 3-[3-[3-methoxy-4-(5-methyl-2-phenyl-4-oxazolylmethoxy)benzyloxy]-1-phenyl-1H-pyrazol-5-yl]propionic acid] | 157 to 158 °C | 
27 | Cc1oc(-c2ccccc2)nc1COc1ccc(COc2cc(CCC(=O)O)n(-c3ccccc3)n2)cc1 [Example 81, 3-[3-[4-(5-methyl-2-phenyl-4-oxazolylmethoxy)benzyloxy]-1-phenyl-1H-pyrazol-5-yl]propionic acid] | 154 to 155 °C | 
28 | Cc1oc(-c2ccccc2)nc1COc1cccc(COc2cc(CCC(=O)O)n(-c3ccccc3)n2)c1 [Example 83, 3-[3-[3-(5-methyl-2-phenyl-4-oxazolylmethoxy)benzyloxy]-1-phenyl-1H-pyrazol-5-yl]propionic acid] | 137 to 138 °C | 
